15 compounds from US10040759B2, “Substituted azetidinyl compounds as GlyT1 inhibitors” (DART NEUROSCIENCE (CAYMAN) LTD., priority 2014, dated 2018) can be followed below.

The target in the experiment is T1, GlyT1 (Homo sapiens, UniProt P48067).
T1 construct: expressed in transfected cells
T1 sequence (P48067 1-706): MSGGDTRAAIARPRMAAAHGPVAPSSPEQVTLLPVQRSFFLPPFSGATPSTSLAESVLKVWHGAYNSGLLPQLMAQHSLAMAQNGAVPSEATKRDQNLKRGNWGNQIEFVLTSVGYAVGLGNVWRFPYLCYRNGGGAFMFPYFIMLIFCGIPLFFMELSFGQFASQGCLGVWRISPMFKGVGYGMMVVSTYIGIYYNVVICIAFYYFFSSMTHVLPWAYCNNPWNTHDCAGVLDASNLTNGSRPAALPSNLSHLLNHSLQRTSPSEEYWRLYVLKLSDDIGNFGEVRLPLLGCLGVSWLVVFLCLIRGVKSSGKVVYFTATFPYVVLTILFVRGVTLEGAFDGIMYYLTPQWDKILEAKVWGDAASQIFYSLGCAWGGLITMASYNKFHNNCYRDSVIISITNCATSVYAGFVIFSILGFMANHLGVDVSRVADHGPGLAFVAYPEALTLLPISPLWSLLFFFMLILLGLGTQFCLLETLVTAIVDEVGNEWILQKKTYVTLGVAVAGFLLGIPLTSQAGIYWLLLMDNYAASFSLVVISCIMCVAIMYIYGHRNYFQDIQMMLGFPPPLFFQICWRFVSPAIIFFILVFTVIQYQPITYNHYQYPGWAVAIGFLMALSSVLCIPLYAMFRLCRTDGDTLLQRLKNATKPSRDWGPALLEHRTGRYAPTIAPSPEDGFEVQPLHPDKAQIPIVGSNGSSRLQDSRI
Briefly: Glycine Transporter 1 (GlyT1) uptake assay, scintillation proximity assay of [14C]-glycine uptake. It counts as cell-based. The following applies: [14C]-glycine uptake; read-out: GlyT1 (pIC50) (converted). The gist of the method: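 IC50 values were derived by four-parameter logistic fitting of counts. The 2× compound solutions were made by 1:100 dilution into HBSS of DMSO serial dilutions.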

`COc1c(C#N)ccc(OC(C)C(F)(F)F)c1C(=O)N1CC(c2ccccn2)C1` (stereo not drawn) [Example 93, 2-Methoxy-3-{[3-(pyridin-2-yl)azetidin-1-yl]carbonyl}-4-[(1,1,1-trifluoropropan-2-yl)oxy]benzonitrile]: the IC50 is less than 100 nM.
The figure for `COc1c(S(C)(=O)=O)ccc(OC(C)C)c1C(=O)N1CC(c2ccc(F)c(F)c2)C1` [Example 216, 3-(3,4-Difluorophenyl)-1-[3-methanesulfonyl-2-methoxy-6-(propan-2-yloxy)benzoyl]azetidine] is 100 to 1000 nM; for `COc1c(S(C)(=O)=O)ccc(O[C@@H](C)C(F)(F)F)c1C(=O)N1CC(Oc2ccccc2C)C1` [Example 48, 1-(3-Methanesulfonyl-2-methoxy-6-{[(2S)-1,1,1-trifluoropropan-2-yl]oxy}benzoyl)-3-(2-methylphenoxy)azetidine] it is 1000 to 10000 nM.
The figure for `COc1c(S(C)(=O)=O)ccc(OC(C)C(F)(F)F)c1C(=O)N1CC(c2ccc(F)c(F)c2)C1` (stereo not drawn) [Example 15, 3-(3,4-Difluorophenyl)-1-({3-methanesulfonyl-2-methoxy-6-[(1,1,1-trifluoropropan-2-yl)oxy]phenyl}carbonyl)azetidine] is less than 100 nM.
The figure for `COc1c(S(C)(=O)=O)ccc(O[C@@H](C)C(F)(F)F)c1C(=O)N1CC(Oc2ccc(C(F)(F)F)cn2)C1` [Example 61, 2-{[1-(3-Methanesulfonyl-2-methoxy-6-{[(2S)-1,1,1-trifluoropropan-2-yl]oxy}benzoyl)azetidin-3-yl]oxy}-5-(trifluoromethyl)pyridine] is 100 to 1000 nM.
Take `COc1c(C#N)ccc(O[C@@H](C)C(F)(F)F)c1C(=O)N1CC(F)(c2ccc(C(F)(F)F)cc2)C1` [Example 69, 3-({3-Fluoro-3-[4-(trifluoromethyl)phenyl]azetidin-1-yl}carbonyl)-2-methoxy-4-{[(2S)-1,1,1-trifluoropropan-2-yl]oxy}benzonitrile]: the IC50 is 100 to 1000 nM.
The figure for `COc1c(S(C)(=O)=O)ccc(OCC(F)(F)F)c1C(=O)N1CC(Oc2c(F)cc(F)cc2F)C1` [Example 225, 1-[3-Methanesulfonyl-2-methoxy-6-(2,2,2-trifluoroethoxy)benzoyl]-3-(2,4,6-trifluorophenoxy)azetidine] is 100 to 1000 nM.
In the case of `COc1c(C#N)ccc(OC(C)C(F)(F)F)c1C(=O)N1CC(c2cccc(C(F)(F)F)c2)C1` (stereo not drawn) [Example 99, 2-Methoxy-3-({3-[3-(trifluoromethyl)phenyl]azetidin-1-yl}carbonyl)-4-[(1,1,1-trifluoropropan-2-yl)oxy]benzonitrile] it was less than 100 nM; in that of `C[C@H](Oc1ccc(C#N)c(Cl)c1C(=O)N1CC(c2ccc(F)c(F)c2)C1)C(F)(F)F` [Example 55, 2-Chloro-3-[3-(3,4-difluorophenyl)azetidine-1-carbonyl]-4-{[(2S)-1,1,1-trifluoropropan-2-yl]oxy}benzonitrile], 100 to 1000 nM; in that of `COc1c(C#N)ccc(O[C@H](C)C(F)(F)F)c1C(=O)N1CC(c2ncc(C(F)(F)F)cc2Cl)C1` [Example 136, 3-{3-[3-Chloro-5-(trifluoromethyl)pyridin-2-yl]azetidine-1-carbonyl}-2-methoxy-4-{[(2R)-1,1,1-trifluoropropan-2-yl]oxy}benzonitrile], 100 to 1000 nM.
The figure for `COc1c(S(C)(=O)=O)ccc(O[C@H](C)C(F)(F)F)c1C(=O)N1CC(c2ccc(C(F)(F)F)cc2F)C1` [Example 138, 3-[2-Fluoro-4-(trifluoromethyl)phenyl]-1-(3-methanesulfonyl-2-methoxy-6-{[(2R)-1,1,1-trifluoropropan-2-yl]oxy}benzoyl)azetidine] is 100 to 1000 nM.
`COc1c(S(C)(=O)=O)ccc(O[C@H](C)C(F)(F)F)c1C(=O)N1CC(Oc2ccc(F)cc2)C1` [Example 188, 3-(4-Fluorophenoxy)-1-(3-methanesulfonyl-2-methoxy-6-{[(2R)-1,1,1-trifluoropropan-2-yl]oxy}benzoyl)azetidine]: the IC50 is less than 100 nM.
The figure for `COc1c(C#N)ccc(C2(F)CCC2)c1C(=O)N1CC(c2ccc(C#N)cc2)C1` [Example 104, 3-{[3-(4-Cyanophenyl)azetidin-1-yl]carbonyl}-4-(1-fluorocyclobutyl)-2-methoxybenzonitrile] is 100 to 1000 nM; for `C#Cc1cc(C(F)(F)F)cnc1C1CN(C(=O)c2c(O[C@@H](C)C(F)(F)F)ccc(S(C)(=O)=O)c2OC)C1` [Example 191, 3-Ethynyl-2-[1-(3-methanesulfonyl-2-methoxy-6-{[(2S)-1,1,1-trifluoropropan-2-yl]oxy}benzoyl)azetidin-3-yl]-5-(trifluoromethyl)pyridine] it is less than 100 nM.
Consider `COc1c(C#N)ccc(C2CC(F)(F)C2)c1C(=O)N1CC(c2ncc(C(F)(F)F)cc2F)C1` [Example 153, 4-(3,3-Difluorocyclobutyl)-3-{3-[3-fluoro-5-(trifluoromethyl)pyridin-2-yl]azetidine-1-carbonyl}-2-methoxybenzonitrile], for which the IC50 is less than 100 nM.
